Results on eight compounds are retold here after PubChem BioAssay (NCI).

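Cultured in 96-well plates, cells were exposed to test compound for 48 hours across five concentrations. At the TGI there is no net growth.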

Holding throughout (assay): DTP human tumour cell line panel, 48 h
Assay [1] relates to HL-60(TB) leukemia.
Assay [2] has as its system SF-539 CNS.
Assay [3] deals with SW-620 colon.
Assay [4] deals with UACC-62 melanoma.
Assay [5] concerns HCC-2998 colon.
The subject of assay [6] is MOLT-4 leukemia.
Assay [7] concerns NCI-H460 lung.
The test system of assay [8] is NCI-H23 lung.
The subject of assay [9] is UO-31 renal.
The subject of assay [10] is U251 CNS.
Assay [11] relates to LOX IMVI melanoma.
For assay [12], the system named is HT29 colon.
Assay [13] deals with CCRF-CEM leukemia.
Assay [14] concerns OVCAR-8 ovarian.
Assay [15] has as its system IGROV1 ovarian.
Assay [16] has as its system OVCAR-5 ovarian.

Broadly, the TGI is the concentration at which net growth stops. Low values mean greater sensitivity of the cells, high ones lower sensitivity of the cells.

For `O=C1OC(c2ccccc2)=NC1c1ccccc1` (stereo not given), the TGI in assay [1], in assay [2], in [3], in [4], in assay [5] and in assay [6] was above 100 µM in each case. Moreover, the TGI in [7], in assay [8], in [9], in assay [10], in assay [11] and in assay [12] was above 100 µM throughout. Moreover, the TGI in assay [13], in assay [14], in assay [15] and in assay [16] was above 100 µM each time.

For `OCC#CCNCl`, the TGI in assay [1], in assay [2], in assay [3], in [4], in assay [5] and in assay [6] was above 100 µM each time. Besides, the TGI in assay [7], in assay [8], in [9], in assay [10], in [11] and in [12] was above 100 µM throughout. Besides, the TGI in assay [13], in assay [14], in assay [15] and in assay [16] was above 100 µM in each case.

Consider `FC(F)(F)c1ccc2c(c1)N(CCCNCCN1CCOCC1)c1ccccc1S2`, for which the TGI in assay [1] is 22.2 µM; in assay [2], 16.9 µM; in assay [3] it was 21.9 µM; in assay [4], 27.8 µM; in [5], 4.06 µM; in [6] it was 20.1 µM. For the same compound, the TGI stood at 38.5 µM in [7]; 24.7 µM in assay [8]; 17.5 µM in [9]; 23.7 µM in assay [10]; 21.2 µM in assay [11]; 10.4 µM in [12]. The TGI came to 30.4 µM in assay [13], 32.8 µM in assay [14], 33.5 µM in assay [15] and 23.4 µM in assay [16].

With `O=[N+]([O-])C(=C/c1ccccc1)/C(=C\c1ccccc1)[N+](=O)[O-]`, the total growth inhibition concentration (TGI) was found to be 12.7 µM in assay [2]; 28.6 µM in assay [3]; 30.7 µM in assay [4]; 36 µM in [5]; 19.5 µM in [6]; 33 µM in assay [7]. For the same compound, the TGI was 31.1 µM in assay [8]; 31.3 µM in assay [9]; 29 µM in [10]; 29.1 µM in assay [11]; 31.4 µM in assay [12]; 7.69 µM in assay [13]. The TGI came to 47.1 µM in assay [14], 33.4 µM in assay [15] and 46.6 µM in [16].

Regarding `C/C(=C/C(=O)Nc1ccccc1)Nc1onc(C)c1C`, the TGI in assay [1], in assay [2], in assay [3], in assay [4], in assay [5] and in assay [6] was above 100 µM each time. For the same compound, the concentration for total growth inhibition (TGI) in assay [7], in assay [8], in [9], in assay [10], in assay [11] and in assay [12] was above 100 µM in each case. Also, the TGI in assay [13], in [14], in [15] and in assay [16] was above 100 µM throughout.

Take `OCC1O[C@H](O[C@@H]2CCCN3CC(O)C(O)[C@@H]23)C(O)C(O)C1O` (stereo not given in full): the TGI in assay [1], in [2], in assay [3], in assay [4], in [5] and in assay [6] was above 100 µM in each case. Moreover, the TGI in assay [8], in assay [9], in assay [10], in assay [12], in assay [13] and in assay [14] was above 100 µM in each case. Further, the TGI in assay [15] and in assay [16] was above 100 µM in each case.

With `Cc1ccc(/C=C2\Sc3scc(-c4ccccc4)[n+]3C2=O)cc1`, the TGI in [1] is 5.31 µM; in assay [2], above 60.6 µM; in [3], above 52.4 µM; in [4] it was 45.6 µM; in assay [5], 75 µM; in [6] it was above 72.6 µM. In addition, the TGI in assay [7] was 42.4 µM; in assay [8] it was 46.4 µM; in assay [9] it was 32 µM; in assay [10], 47.5 µM; in assay [11], above 54.5 µM; in assay [12], 56.9 µM. Also, the TGI in assay [13] was 32.9 µM; in assay [14], above 56.6 µM; in assay [15], above 56.8 µM; in assay [16] it was above 100 µM.

On to `Nc1nc(Nc2ccc(Cl)c(Cl)c2)nc2nc[nH]c12`, for which the TGI in assay [1] turned out to be 31.9 µM; in [2] it was 26.7 µM; in assay [3] it was 41.6 µM; in assay [4] it was 29 µM; in assay [5], 27.9 µM; in assay [6], 39.2 µM. The TGI in assay [7] turned out to be 34 µM; in assay [8], 34.9 µM; in [9] it was 21.3 µM; in assay [10] it was 36.5 µM; in assay [11], 36.9 µM; in assay [12], 30.6 µM. Further, the TGI in [13] amounted to 41 µM; in assay [14], 28 µM; in assay [15] it was 27 µM; in assay [16], 75.3 µM.
